Tests used:
[1] = molecular target: red clover HDT1 (Trifolium pratense, UniProt A0A384ZRD3); assay: Determination of kinetic parameters of HDT (initial rates by release of free CoA, DTNB, purified histidine-tagged HDT1); settings: for kcat / Km: variable acceptor substrate; for Km: pH 8.0, 25°C
Experimental: Kinetic parameters for HDT were determined by measuring initial reaction rates by release of free CoA in real time using DTNB [5,5′-dithio-bis-(2-nitrobenzoic acid)] and spectroscopy as detailed elsewhere ([Sullivan and Bonawitz, 2018]). Measurements were made in a temperature-controlled spectrophotometer at 25°C. Reactions were carried out in 100mM sodium phosphate, 1mM EDTA, pH 8.0. Acceptor substrates were prepared in 1N HCl as 66.7×stock solutions, so an equal amount of 1N NaOH was added to reactions to neutralize the HCl (15mM final). Substrate and enzyme amounts used are detailed in Table 2.
All kinetic data analyses were carried out using GraphPad Prism version 7 or higher for Mac OS (GraphPad Software, La Jolla, CA, United States). Each analysis (i.e., series of substrate concentrations) was carried out in duplicate on different days with freshly prepared substrate and enzyme dilutions. Data were analyzed by non-linear regression of the replicated data. […] Kinetic parameters are reported±standard error (SE) as determined from the non-linear regression.
More limited analyses (explained below) were carried out with L-Phe and L-Leu acceptor substrates.

[2] = system: red clover HDT (HDT1); assay: In vitro hydroxycinnamoyl-CoA transferase activity assay with crude E. coli extracts containing recombinant HDT, products by HPLC with PDA and MS; assay type: biochemical, red clover (Trifolium pratense L.); settings: p-coumaroyl-, caffeoyl- or feruloyl-CoA donor; HPLC with PDA and MS detection
Experimental: General in vitro reactions for hydroxycinnamoyl-CoA transferase activity contained 100mM sodium phosphate buffer (pH 7.5), 25 to 50mM ascorbate, 1 to 2mM p-coumaroyl-, caffeoyl-, or feruloyl-CoA donor substrate, 1 to 6mM acceptor substrate (L-amino acids, shikimic acid, or malic acid), and red clover leaf or E. coli extract. When red clover extract was the enzyme source, reaction head space was exchanged for nitrogen to prevent oxidation of caffeoyl and L-DOPA moieties by endogenous PPO. Reactions were incubated at 30°C for up to 1h prior to being stopped by the addition of one-fifth volume of 10% formic acid. Precipitated protein was removed by centrifugation (17,000×g for 5min at room temperature) and the supernatant analyzed for reaction products by HPLC as described above.
Crude E. coli extracts containing the recombinant proteins were incubated with hydroxycinnamoyl-CoAs and acceptors, and the reactions were analyzed by HPLC with PDA and MS detection. […] In the case of caffeoyl-L-Tyr and caffeoyl-L-DOPA, where authentic compound was available for purchase, the in vitro-formed products were indistinguishable from the purchased standards in terms of retention time, UV absorption spectrum, and (m/z). For caffeoyl-L-Tyr, we also produced sufficient compound via an HDT1-mediated reaction to carry out ^1H and ^13C NMR to further confirm product identity (Supplementary Figure S2). Chemical shifts were consistent with those previously published for this compound ([Stark and Hofmann, 2005]). […] We only tested L-amino acids with HDT1, since this is what is present in clovamide and what is most abundantly present in nature. […] In this case, ability of the D-amino acid substrates to serve as acceptor substrates could be due to their structural (including stereochemistry) similarity to the D-phenyllactic acid acceptor also used by this enzyme.

[3] = substrate: N[C@@H](Cc1ccc(O)cc1)C(=O)O; assay: purified protein, by the assay type; settings: other: variable acceptor substrate, pH 8.0, 25°C
[4] = substrate: N[C@@H](Cc1ccc(O)c(O)c1)C(=O)O; assay: purified protein, by the assay type; settings: other: variable acceptor substrate, pH 8.0, 25°C
[5] = constant substrate FA-CoA (20μM)
[6] = constant substrate p-CA-CoA (20μM)
[7] = constant substrate CA-CoA (50μM)

With N[C@@H](Cc1ccc(O)c(O)c1)C(=O)O [L-DOPA, L-3,4-dihydroxyphenlylalanine] the kcat [1, 5] was 0.75 ± 0.015 s⁻¹, the kcat [1, 6] was 2.00 ± 0.022 s⁻¹ and the “Use as acceptor substrate (product formation with hydroxycinnamoyl-CoA donors)” value (shortened to “Use as acceptor substrate”) [2] was “capable of transferring”.

With CC(C)C[C@H](N)C(=O)O [L-Leu, L-leucine] the Km [1, 7] was over 10000 µM and the “Use as acceptor substrate” value [2] was “can also serve as acceptors”.

With N[C@@H](Cc1ccccc1)C(=O)O [L-Phe, L-phenylalanine] the Km [1, 7] was over 10000 µM and the “Use as acceptor substrate” value [2] was “capable of transferring”.

Work on N[C@@H](Cc1c[nH]c2ccccc12)C(=O)O [L-Trp, L-tryptophan] yielded a kcat [1, 7] of 1.21 ± 0.007 s⁻¹, a Km [1, 7] of 1250 ± 26.7 µM and a kcat [1, 5] of 0.35 ± 0.007 s⁻¹. For the same molecule, the Km [1, 5] was 273 ± 24.1 µM, the kcat [1, 6] was 1.00 ± 0.009 s⁻¹ and the Km [1, 6] was 2160 ± 63.4 µM. The “Use as acceptor substrate” value [2] was “can also serve as acceptors”.

With N[C@@H](Cc1ccc(O)cc1)C(=O)O [L-Tyr, L-tyrosine] the “catalytic efficiency, fold higher compared to L-DOPA as acceptor” value ([1]; acceptor substrate comparison) was “about 10 fold” and the “Use as acceptor substrate” value [2] was “capable of transferring”.

For N=C(N)NCCC[C@H](N)C(=O)O [arginine], the “Use as acceptor substrate” value [2] was “no product was detected”.

In the case of O=C(O)CC(O)C(=O)O (stereo not shown) [malic acid], the “Use as acceptor substrate” value [2] is reported as “No reaction products were seen”.

In the case of NCCc1ccc(O)cc1 [tyramine], the “Use as acceptor substrate” value [2] is reported as “no reaction products were seen”.

B1: red clover HDT1 (Trifolium pratense) (protein)
chain: MVTIIASHTVIPEEPTPQGPFWLSDMDQVVRIRDVPTLYIYKTPKKNQENKNIVETFKNSLSKILVHYYPIAGRLCYIEGGRLELNLNAKGAILVEAETEKTMNDYGDFSHFDTIKELVPMIDYNQPIEEIPNFVVQLTNFKNNEGFAIGVAFLHPLSDGLGAIKFINSWAKIARGETLEANELPFLDRKLLKFSHTPLEPRFEHLELKPLPLILGRKDASEEKEKKTSATLLKLSSEQVDKLKKKANEEDVLGIQKKEYSRPYSKFEVISAHIWRCASKARELEDNQESVIRFIADVKNRMIPPLPKNYFGNALTQTATKGYIGEITSKPLGYVAQKIREATELINDEYIRSQIDVVRSFEHLDDARKMFIGEKARYFGNPNFNLTSWLSMPVYEADFGWGKPNYFGLADVSPHDRAVILLSPDDDGSVLVSFHFQIAHMELFNKYFYEEI
In the case of B1, the Km [3, 7] is reported as 342.0 ± 14.37 µM, the kcat [3, 7] is reported as 9.12 ± 0.114 s⁻¹ and the kcat/Km [3, 7] is reported as 26700 ± 1170 M⁻¹ s⁻¹. For the same molecule, the Km [3, 5] was 14.4 ± 0.64 µM, the kcat [3, 5] was 0.69 ± 0.006 s⁻¹ and the kcat/Km [3, 5] was 47900 ± 2160 M⁻¹ s⁻¹. The Km [3, 6] was 145.3 ± 5.56 µM, the kcat [3, 6] was 2.74 ± 0.027 s⁻¹ and the kcat/Km [3, 6] was 18900 ± 750 M⁻¹ s⁻¹. For the same molecule, the Km [4, 7] was 2465.0 ± 65.88 µM, the Km [4, 5] was 150.0 ± 7.65 µM and the Km [4, 6] was 989.8 ± 35.92 µM.
